According to US20250011316A1, “PEROXIREDOXIN 3 INHIBITORS AND METHODS OF USE FOR TREATING CANCER” (Wake Forest University Health Sciences, priority 2022, published 2025):
Values after ≈ are worked out from the molar mass of the structure shown. Where two headings read alike, the source gives them in different places.

Columns and labels:
[1] = Solubility Assay (HPLC); assay type: physicochemical; conditions: 20 mM HEPES, 100 mM NaCl, pH 7.5, 18-24 hours at ambient temperature
Protocol: A 20 mM stock solution was made for each compound in DMSO. To measure solubility, 0.03-0.05 mL of the stock was added to 0.27 mL 20 mM HEPES, 100 mM NaCl, pH 7.5. The solution was mixed and rotated 18-24 hours at ambient temperature. The next day, solutions were centrifuged for 10 min at 20,000×g at […] to remove insoluble, solid material. Next, 100 μL of the supernatant containing the soluble compound was added to 900 μL DMSO and High Performance Liquid Chromatography was performed as described in Table 1 and either HIPLC gradient 1 (Table 2) or HIPLC gradient 2 (Table 3). For each analog, a 200 μM standard and a 20 μM standard were prepared and run in parallel (standards were dissolved completely in […]). The amount ofLcompound in the experimental sample was calculated by comparing the area under the curve for compound peak to the area for the closest standard and correcting for dilution.

[2] = molecular target: T1, purified human PRX3 (Homo sapiens, UniProt P30048); test: Biochemical PRX3 Inhibition Assay (non-reducible crosslink by SDS PAGE + single adduct by MALDI-TOF MS); conditions: 100 μM PRX3 with TRX2/thioredoxin reductase/NADPH system and hydrogen peroxide, 1-2 hr at 37° C.
T1 construct: made in house
T1 sequence (P30048 62-256): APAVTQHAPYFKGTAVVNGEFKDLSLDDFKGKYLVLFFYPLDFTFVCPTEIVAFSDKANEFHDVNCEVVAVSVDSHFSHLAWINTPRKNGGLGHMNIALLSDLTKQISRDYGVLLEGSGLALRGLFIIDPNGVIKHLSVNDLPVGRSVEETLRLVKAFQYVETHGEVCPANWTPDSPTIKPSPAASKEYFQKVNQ
Text: The compounds described herein generally react with two essential cysteine residues in the mitochondrial peroxidase PRX3, leading to the formation of a non-reducible, covalent crosslink of two PRX3 monomers. This crosslink inactivates PRX3. Increased PRX3 crosslink is associated with mitochondrial stress, increased cell death in cell models of malignant mesothelioma and is associated with decreased tumor volume in a mouse model. Cunniff et al. (2015) PloS one 10, e0127310.
(§1) To test the activity of compounds, two complimentary assays were used as described below. The Biochemical PRX3 Inhibition Assay tests the ability of each compound to crosslink PRX3 in a simple, in vitro system. In the Cellular Activity Assay, we are testing the ability of compounds to kill SK—OV-3 ovarian cancer cells.
This assay tests the ability of each compound to form a covalent adduct with PRX3. The assay is performed as described in Nelson et al. (2021) Antioxidants (Basel) 10, 150; and Cunniff et al. (2015) PloS one 10, e0127310, and follows the appearance of non-reducible PRX3 crosslinks by SDS PAGE gel electrophoresis and follows the appearance of single PRX3 adducts by mass spectrometry. For this assay, purified human PRX3, hydrogen peroxide (the PRX3 substrate) and all the components required to enable PRX3 to catalytically cycle (thioredoxin-thioredoxin reductase-NAPDH system) are included (details below).
The biochemical PRX3 Inhibition assay contains 100 μM PRX3, 50 μM human TRX2, 0.5 μM mouse thioredoxin reductase, and a NADPH regenerating system composed of 3.2 mM glucose 6-phosphate, 3.2 U/ml glucose 6-phosphate dehydrogenase and 0.4 mM NADPH. Samples are incubated for 1-2 hr at 37° C. with either 0.2 mM TS (positive control), compounds or an equivalent volume of DMSO (negative control). During this incubation, hydrogen peroxide is added to induce turnover of PRX3. Reactions are stopped by the addition of a buffer containing 100 mM dithiothreitol (to break disulfide bonds) and SDS (detergent to denature proteins). NADPH, Glucose 6-Phosphate, and glucose 6-phosphate dehydrogenase were purchased from Sigma Aldrich. PRX3, thioredoxin, and thioredoxin reductase were all purified to >98% purity in the Lowther laboratory according to protocols referenced in Nelson et al. (2021) Antioxidants (Basel) 10, 150; and Cunniff et al. (2015) PloS one 10, e0127310.
To measure the amount of PRX3 crosslink, proteins in the reaction were separated by SDS-polyacrylamide gel electrophoresis and stained for total protein using GelCode Blue (Life Technologies). The amount of unmodified PRX3 and TS-PRX3 crosslink was measured by densiometric analysis of the signal for the PRX3 band running at the MW of a PRX3 crosslink (˜46 kDa) compared to the PRX3 signal at the MW of the un-modified PRX3 (−23 kD).
To measure covalent adduct formation on a single PRX3 monomer, each reaction was exchanged into a mass spectrometry compatible buffer containing 40 mM ammonium citrate, pH 8.3 made in HPLC water. Sample was mixed 1:1 with a matrix solution containing 30 mg/mL sinapinic acid in 70% (vol/vol) acetonitrile, 0.2% formic acid and spotted to onto the sample plate. PRX3 mass was measured by MALDI-TOF MS analysis on a Bruker Daltonics MALDI-TOF MS spectrometer. Spectra were analyzed in FLEXAnalysis Software. The intensity of the reduced PRX3 peak (SH) and intensity of the analog adduct peak was determined and corrected for background signal at the adduct peak in the DMSO control. The fraction of single analog adduct in the monomer peak was determined by dividing the intensity of the adduct peak by the summed intensity of the SH and adduct peaks.

[3] = tested on: human SK—OV-3 ovarian cancer cells; test: Cellular Activity Assay (cytotoxicity, crystal violet); assay type: cell-based; conditions: SK—OV-3 cells, treated for 48 hr, 0.1-100 μM, crystal violet absorbance at 540 nm
Text: as §1
The Cellular Activity Assay measures the EC50 of each compound in human SK—OV-3 ovarian cancer cells TS to be taken into the cell, transported to the mitochondria, and crosslink PRX3.
The cytotoxicity of compounds was measured as described in Nelson et al. (2021) Antioxidants (Basel) 10, 150; Cunniff et al. (2015) PloS one 10, e0127310; and Newick et al. (2012) PloS one 7, e39404. SK—OV-3 is an adherent, epithelial, adenocarcinoma cell line obtained from ATCC (ref #: HTB-77). SK—OV-3 cells are resistant to the commonly used chemotherapeutics, cis-platinum and doxorubicin. For this […], SK—OV-3 cells were plated in a 96-well plate. After 24 h recovery, the cells were treated for 48 hr with multiple concentrations of each compound ranging from 0.1-100 μM.
Cells were washed with PBS to remove dead cells and the remaining live cells were fixed with 3.0% formaldehyde and stained with 0.1% crystal violet. The amount of crystal violet was determined by reading the absorbance at 540 nm (crystal violet dye dissolved in 100% methanol) using a plate reader. The signal for crystal violet dye is proportional to the biomass of remaining live cells. GraphPad Prism9 software was used to calculate the effective inhibitory concentration (EC50) of test compounds. Results for each compound, are normalized to the amount of cells in control wells treated with the equivalent concentration of DMSO (negative control). TS or Compound 4 were included in each set of assays as a positive control.

[4] = HEPES/NaCl buffer, aqueous with cosolvent or surfactant or cyclodextrin, kinetic from dmso stock, read-out: Solubility

Row | SMILES | solubility [1, 4] [µM] | PRX3 Inhibition (Crosslink + Mono-adduct) [2] | EC50 ([3]; Homo sapiens) [µM] | solubility [1] | EC50 [3] [µM]
1 | C=C(NC(=O)c1csc(-c2ccc(CNC(=O)COCCOC)cc2)n1)C(=O)NC(=C)C(=O)OC [Compound 35, Methyl 2-(2-(2-(4-((2-(2-methoxyethoxy)acetamido)methyl)phenyl)thiazole-4-carboxamido)acrylamido)acrylate] | 100 to 1000 (≈ 50.3 to 503 µg/mL) | +++ (>90%) | 1 to 10 | – | –
2 | C=C(NC(=O)c1csc(-c2ccc(CNC(=O)C3CCOCC3)cc2)n1)C(=O)NC(=C)C(=O)OC [Compound 36, Methyl 2-(2-(2-(4-((tetrahydro-2H-pyran-4-carboxamido)methyl)phenyl)thiazole-4-carboxamido)acrylamido)acrylate] | < 100 | +++ (>90%) | 1 to 10 | – | –
3 | C=C(NC(=O)c1csc(-c2ccc(CNC(=O)CCCCCCl)cc2)n1)C(=O)NC(=C)C(=O)OC [Compound 37, Methyl 2-(2-(2-(4-((6-chlorohexanamido)methyl)phenyl)thiazole-4-carboxamido)acrylamido)acrylate] | < 100 | + (5-50%) | 1 to 10 | – | –
4 | C=C(NC(=O)c1csc(-c2ccc(CNC(=O)CCNC(=O)OC(C)(C)C)cc2)n1)C(=O)NC(=C)C(=O)OC [Compound 38, Methyl 2-(2-(2-(4-((3-((tert-butoxycarbonyl)amino)propanamido)methyl)phenyl)thiazole-4-carboxamido)acrylamido)acrylate] | < 100 | ++ (50-90%) | 1 to 10 | – | –
5 | C=C(NC(=O)c1csc(-c2ccc(CNC(=O)CCCCCN=[N+]=[N-])cc2)n1)C(=O)NC(=C)C(=O)OC [Compound 39, Methyl 2-(2-(2-(4-((6-azidohexanamido)methyl)phenyl)thiazole-4-carboxamido)acrylamido)acrylate] | < 100 | ++ (50-90%) | 1 to 10 | – | –
6 | C=C(NC(=O)c1csc(N2CCC(CNC(=O)CCCCCCl)CC2)n1)C(=O)NC(=C)C(=O)OC [Compound 40, Methyl 2-(2-(2-(4-((6-chlorohexanamido)methyl)piperidin-1-yl)thiazole-4-carboxamido)acrylamido)acrylate] | 100 to 1000 (≈ 52.6 to 526 µg/mL) | +++ (>90%) | 10 to 25 | – | –
7 | C=C(NC(=O)c1csc(N2CCC(CNC(=O)COCCOC)CC2)n1)C(=O)NC(=C)C(=O)OC [Compound 41, Methyl 2-(2-(2-(4-((2-(2-methoxyethoxy)acetamido)methyl)piperidin-1-yl)thiazole-4-carboxamido)acrylamido)acrylate] | > 1000 | +++ (>90%) | 10 to 25 | – | –
8 | C=C(NC(=O)c1csc(-c2ccc(COC(=O)NCCCOC)cc2)n1)C(=O)NC(=C)C(=O)OC [Compound 42, Methyl 2-(2-(2-(4-((((3-methoxypropyl)carbamoyl)oxy)methyl)phenyl)thiazole-4-carboxamido)acrylamido)acrylate] | < 100 | +++ (>90%) | 1 to 10 | – | –
9 | C=C(NC(=O)c1csc(-c2cccc(CNC(=O)OC(C)(C)C)c2)n1)C(=O)NC(=C)C(=O)OC [Compound 43, Methyl 2-(2-(2-(3-(((tert-butoxycarbonyl)amino)methyl)phenyl)thiazole-4-carboxamido)acrylamido)acrylate] | < 100 | +++ (>90%) | 1 to 10 | – | –
10 | C=C(NC(=O)c1csc(-c2ccc(CNC(=O)CCCCCNC(=O)OC(C)(C)C)cc2)n1)C(=O)NC(=C)C(=O)OC [Compound 44, Methyl 2-(2-(2-(4-((6-((tert-butoxycarbonyl)amino)hexanamido)methyl)phenyl)thiazole-4-carboxamido)acrylamido)acrylate] | – | +++ (>90%) | – | + (<0.1 mM) | 1 to 10
11 | C=C(NC(=O)c1csc(N2CCC(NC(=O)CC3CCOCC3)CC2)n1)C(=O)NC(=C)C(=O)OC [Compound 51, Methyl 2-(2-(2-(4-(2-(tetrahydro-2H-pyran-4-yl)acetamido)piperidin-1-yl)thiazole-4-carboxamido)acrylamido)acrylate] | < 100 | +++ (>90%) | – | – | –
12 | C=C(NC(=O)c1csc(N2CCC(NC(=O)C3COCCO3)CC2)n1)C(=O)NC(=C)C(=O)OC (centres unmarked) [Compound 58, Methyl 2-(2-(2-(4-(1,4-dioxane-2-carboxamido)piperidin-1-yl)thiazole-4-carboxamido)acrylamido)acrylate] | 100 to 1000 (≈ 49.4 to 494 µg/mL) | +++ (>90%) | – | – | –
13 | C=C(NC(=O)c1csc(N2CCN(C(=O)C3CCOCC3)CC2)n1)C(=O)NC(=C)C(=O)OC [Compound 59, Methyl 2-(2-(2-(4-(tetrahydro-2H-pyran-4-carbonyl)piperazin-1-yl)thiazole-4-carboxamido)acrylamido)acrylate] | 100 to 1000 (≈ 47.8 to 478 µg/mL) | +++ (>90%) | – | – | –
14 | C=C(NC(=O)c1csc(N2CCN(C(=O)OC(C)(C)C)[C@H](C)C2)n1)C(=O)NC(=C)C(=O)OC [Compound 60, Tert-butyl (R)-4-(4-((3-((3-methoxy-3-oxoprop-1-en-2-yl)amino)-3-oxoprop-1-en-2-yl)carbamoyl)thiazol-2-yl)-2-methylpiperazine-1-carboxylate] | < 100 | +++ (>90%) | – | – | –
